# Measured values as given in ChEMBL document CHEMBL1201862, “PubChem BioAssay data set” (2004).
#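 Results reflect a 48-hour exposure of cells in 96-well plates to compound at five concentrations. GI50: concentration for 50% inhibition of growth.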 The source made the active and inactive calls. No stated cut-off is given here; in the data, active = GI50 up to about 1.1 µM and inactive = higher.
# Columns and labels:
# Assay in all cases: NCI-60 cell line screen, 48 h
# SNB-78 = tested on: SNB-78
# DLD-1 = tested on: DLD-1
# LXFL 529 = tested on: LXFL 529
# ACHN = tested on: ACHN
# DMS-114 = tested on: DMS-114
# MDA-MB-435 = tested on: MDA-MB-435
# MDA-MB-231 = tested on: MDA-MB-231
# Hs-578T = tested on: Hs-578T
SMILES,GI50 (SNB-78),GI50 (DLD-1),GI50 (LXFL 529),GI50 (ACHN),GI50 (DMS-114),GI50 (MDA-MB-435),GI50 (MDA-MB-231),GI50 (Hs-578T)
S=C(NCCCCCCNC(=S)Nc1c2ccccc2nc2ccccc12)Nc1c2ccccc2nc2ccccc12,> 87.7 µM (inactive),70.1 µM (inactive),–,–,–,–,–,–
O=[N+]([O-])c1ccc(-n2nnc(C3=NCCCN3)c2-c2ccc(Cl)cc2)cc1,> 100 µM (inactive),> 100 µM (inactive),> 100 µM (inactive),> 100 µM (inactive),–,–,–,–
O=C1OCc2cccc3c2-c2c1cccc2C(=O)OC3,> 100 µM (inactive),> 100 µM (inactive),–,–,> 100 µM (inactive),–,–,–
Cc1ccccc1NC(=O)C(=O)C(C1OC(=O)c2ccccc21)[N+](=O)[O-] (stereo not drawn),> 100 µM (inactive),> 100 µM (inactive),> 100 µM (inactive),> 100 µM (inactive),> 100 µM (inactive),–,–,–
COC1/C=C/C=C(/C)Cc2cc(O)c(Cl)c(c2)N(C)C(=O)CC(OC(=O)C(C)C)C2(C)OC2C(C)C2CC1(O)NC(=O)O2 (stereo not drawn),–,–,–,–,–,< 0.01 µM (active),< 0.01 µM (active),–
CC(C)(C)c1cc(C2COC(=O)COCCOCC(=O)OCCOCCO2)cc(C(C)(C)C)c1O (stereo not drawn),–,–,–,20.7 µM (inactive),–,37.3 µM (inactive),46.6 µM (inactive),27.7 µM (inactive)
CCC(/C=C/c1ccccc1)=N\Nc1ccc(Cl)c(Cl)c1,–,–,–,26.7 µM (inactive),–,33.3 µM (inactive),17.8 µM (inactive),55.3 µM (inactive)
N#Cc1c(Cl)c2cccnc2n2c1nc1ccccc12,–,–,–,1.78 µM (inactive),–,4.3 µM (inactive),2.13 µM (inactive),2.79 µM (inactive)
Cc1ccc(C(=O)N/N=C(\N=N\c2ccc([N+](=O)[O-])cc2)c2ccc(N(CCC#N)CCC#N)cc2C)cc1,–,–,–,> 100 µM (inactive),–,67.8 µM (inactive),> 100 µM (inactive),50.1 µM (inactive)
COc1ccccc1-c1cc(O)c2c(C)ccnc2n1,–,–,–,28.4 µM (inactive),–,–,26.7 µM (inactive),11.5 µM (inactive)
CC(C)N/C(N)=N/C#N,> 100 µM (inactive),> 100 µM (inactive),> 100 µM (inactive),> 100 µM (inactive),> 100 µM (inactive),–,–,–
COC(=O)N1CC2C3C4CC(C(c5ccccc5)=C4c4ccccc4)C3C21 (stereo not drawn),–,–,–,23.3 µM (inactive),–,15.2 µM (inactive),7.35 µM (inactive),–
CCOC(=O)C[n+]1ccc2c([nH]c3cc(OC)ccc32)c1C,> 100 µM (inactive),> 100 µM (inactive),–,–,> 83.2 µM (inactive),–,–,–
CO/N=C(\C)c1ccc(Nc2nc3ccccc3c3occc23)cc1,–,–,–,14 µM (inactive),–,16.4 µM (inactive),12.7 µM (inactive),12.5 µM (inactive)
O=c1oc2cc(O)ccc2c2oc3cc(O)ccc3c12 [COUMESTROL],64.4 µM (inactive),62.5 µM (inactive),–,–,9.89 µM (inactive),–,–,–
BrC1=CN2C[n+]3cc(Br)c4ccccc4c3N=C2c2ccccc21,–,–,–,14.8 µM (inactive),–,6.18 µM (inactive),15 µM (inactive),22.1 µM (inactive)
O=[N+]([O-])c1cnccc1-n1nnc2ccccc21,27 µM (inactive),20.2 µM (inactive),–,–,11.5 µM (inactive),–,–,–
CSCSCC(N)CO.Cc1[nH]c(=O)[nH]c(=O)c1/C=C/C(=O)O,618 µM (inactive),> 625 µM (inactive),–,–,> 625 µM (inactive),–,–,–
